# In ChEMBL document CHEMBL1201862, “PubChem BioAssay data set” (2004):
# Calls of active or inactive are those of the source.
# Assays:
# [1] = molecular target: Metabotropic glutamate receptor 4 (Homo sapiens, UniProt Q14833); experiment: Modulation of the Metabotropic Glutamate Receptor mGluR4: Potency at human mGluR4. Modulation of intracellular Ca2+ using Fluo-4, AM, in CHO expressing recombinant receptor [Related pubchem assays (depositor defined):AID2437, AID2807]; assay type: functional, cell-based
# [2] = molecular target: Metabotropic glutamate receptor 4 (Rattus norvegicus, UniProt P31423); experiment: Modulation of the Metabotropic Glutamate Receptor mGluR4: Rat PAM Potency. [Related pubchem assays (depositor defined):AID2437, AID2807]; assay type: functional
# Wee1-like protein kinase = Wee1-like protein kinase (Homo sapiens, UniProt P30291); experiment: G2/M cell cycle arrest in HeLa, late-stage follow-up, mechanism study for Wee1 degradation inhibitor project, FACS, panel member Wee1 Degradation (AID 2088)
# [3] = molecular target: G2/mitotic-specific cyclin-B1 (Homo sapiens, UniProt P14635); experiment: G2/M cell cycle arrest in HeLa, late-stage follow-up, mechanism study for Wee1 degradation inhibitor project, FACS, panel member Cyclin B Degradation (AID 2088)
# [4] = molecular target: T1, Intestinal-type alkaline phosphatase (Homo sapiens, UniProt P09923); experiment: Dose Response confirmation of uHTS hits from a small molecule inhibitors of human intestinal alkaline phosphatase via a luminescent assay. [Related pubchem assays (depositor defined):AID2544, AID2574]; assay type: functional
# [5] = molecular target: T1, Intestinal-type alkaline phosphatase; experiment: human intestinal alkaline phosphatase activators, dose response, biochemical, luminescence, uHTS hits (AID 463120); assay type: functional
# [6] = molecular target: T2, Tyrosine-protein phosphatase non-receptor type 7 (Homo sapiens, UniProt P35236); experiment: redox-dependent HePTP inhibition, mechanism study, biochemical, fluorescence (AID 2068); assay type: functional
# T2 sequence (P35236 whole entry): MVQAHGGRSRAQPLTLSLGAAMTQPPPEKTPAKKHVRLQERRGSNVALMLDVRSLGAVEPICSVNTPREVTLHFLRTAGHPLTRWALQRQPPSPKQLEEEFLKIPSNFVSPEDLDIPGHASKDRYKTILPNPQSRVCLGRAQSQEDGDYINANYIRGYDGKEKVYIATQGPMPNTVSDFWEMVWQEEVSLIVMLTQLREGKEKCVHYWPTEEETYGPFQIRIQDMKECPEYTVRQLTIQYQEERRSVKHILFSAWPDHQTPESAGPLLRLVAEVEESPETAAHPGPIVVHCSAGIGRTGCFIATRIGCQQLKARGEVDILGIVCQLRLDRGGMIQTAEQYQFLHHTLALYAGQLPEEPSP
# [7] = molecular target: Dual specificity protein phosphatase 3 (Homo sapiens, UniProt P51452); experiment: SAR VHR1 Fluorescent Assay for In Vitro dose response studies Set 2. [Related pubchem assays (depositor defined):AID1654, AID1661, AID1878]; assay type: functional
# [8] = molecular target: T3, Dual specificity protein phosphatase 6 (Rattus norvegicus, UniProt Q64346); assay type: functional;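 note: confirmatory in vitro dose-response testing of MKP-3 inhibition; recombinant His-tagged MKP-3 made in E. coli BL21 with OMFP substrate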
# T3 sequence (Q64346 whole entry): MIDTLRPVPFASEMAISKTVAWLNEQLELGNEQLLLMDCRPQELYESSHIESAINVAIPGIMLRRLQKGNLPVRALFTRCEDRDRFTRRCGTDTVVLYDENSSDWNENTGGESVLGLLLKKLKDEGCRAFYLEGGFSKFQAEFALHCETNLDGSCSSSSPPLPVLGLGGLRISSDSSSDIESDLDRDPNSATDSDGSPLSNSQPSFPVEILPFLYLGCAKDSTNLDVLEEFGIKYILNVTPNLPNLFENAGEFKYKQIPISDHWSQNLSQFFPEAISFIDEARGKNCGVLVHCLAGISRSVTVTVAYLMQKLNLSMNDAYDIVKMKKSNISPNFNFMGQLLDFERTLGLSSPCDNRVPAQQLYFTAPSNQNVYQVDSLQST
# [9] = molecular target: Voltage-dependent T-type calcium channel subunit alpha-1H (Homo sapiens, UniProt O95180); experiment: Cav3.2 T-type channel inhibitors, cell-based, synthetic library set 1, calcium flux (AID 493022); assay type: functional
# [10] = HEp-2 cell cytotoxicity, dose response, cytotoxicity control for RSV inhibitor project, HTS (AID 2410); assay type: functional; details: human respiratory syncytial virus
# [11] = tested on: Streptococcus sp. 'group A'; experiment: growth inhibition of control SK(-) GAS strain, dose response, counter-screen for streptokinase expression inhibitor project, luminescence, kanamycin, BacTiterGlo, confirmation (AID 1900); assay type: functional, organism-based
# Streptococcus = experiment: Group A Streptococcus viability loss, dose response, counter-screen for streptokinase expression inhibitor project, luminescence, BacTiterGlo (AID 1915); assay type: functional, organism-based;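 note: potency for reduction of bacterial viability or growth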
# [12] = Luminescence Cell-Based Dose Retest to Confirm Inhibitors of Cancer Stem Cells. [Related pubchem assays (depositor defined):AID2717, AID2721]; assay type: functional; details: Homo sapiens
# X-box-binding protein 1 = X-box-binding protein 1 (Homo sapiens, UniProt P17861); assay type: functional, Cricetulus griseus;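 note: confirmatory dose-response counter-screen serving a CHOP assay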
# Streptokinase A = molecular target: T4, Streptokinase A (Streptococcus pyogenes serotype M1, UniProt P10520); experiment: S. pyogenes streptokinase expression inhibitors, potency, dose response, plasminogen activation absorbance, OD405 (AID 1914); assay type: functional, Streptococcus pyogenes M1 GAS;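 note: secreted streptokinase activity via plasminogen activation per viability signal from cell pellet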
# T4 sequence (P10520 whole entry): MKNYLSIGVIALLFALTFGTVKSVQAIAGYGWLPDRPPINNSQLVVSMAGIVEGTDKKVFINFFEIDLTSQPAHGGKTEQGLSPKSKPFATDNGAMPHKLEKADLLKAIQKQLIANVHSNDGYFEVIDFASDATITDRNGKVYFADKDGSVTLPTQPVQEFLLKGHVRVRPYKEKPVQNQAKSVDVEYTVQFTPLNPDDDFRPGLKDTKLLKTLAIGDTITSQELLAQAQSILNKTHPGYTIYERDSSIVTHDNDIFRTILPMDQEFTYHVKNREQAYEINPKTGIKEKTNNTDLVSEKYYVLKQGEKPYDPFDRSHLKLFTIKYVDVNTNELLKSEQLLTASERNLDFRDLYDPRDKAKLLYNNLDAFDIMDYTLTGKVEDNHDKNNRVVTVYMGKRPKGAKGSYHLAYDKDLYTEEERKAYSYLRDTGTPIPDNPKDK
# [13] = growth suppression of PTEN-null colon cells, dose response, cell-based, HCT116 PTEN knockout (AID 1047); assay type: functional;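 note: HCT116 colon tumor cells with PTEN knocked out; cells exposed to compound for 60 hours before readout; potency for loss of cell viability measured by luminescence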
# [14] = growth suppression of beta-catenin-knockout colon cells, dose response, cell-based, HCT116, human colon tumor (AID 1045); assay type: functional;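 note: HCT116 colon tumor cells with beta catenin knocked out; cells exposed to compound for 60 hours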
# [15] = molecular target: T5, Short transient receptor potential channel 4 (Mus musculus, UniProt Q9QUQ5); experiment: TRPC4 positive allosteric modulators, dose response, cell-based, HEK293 TRPC4/mu-opioid, Fluo-4 calcium, EC20 DAMGO (AID 434941); assay type: functional
# T5 sequence (Q9QUQ5 whole entry): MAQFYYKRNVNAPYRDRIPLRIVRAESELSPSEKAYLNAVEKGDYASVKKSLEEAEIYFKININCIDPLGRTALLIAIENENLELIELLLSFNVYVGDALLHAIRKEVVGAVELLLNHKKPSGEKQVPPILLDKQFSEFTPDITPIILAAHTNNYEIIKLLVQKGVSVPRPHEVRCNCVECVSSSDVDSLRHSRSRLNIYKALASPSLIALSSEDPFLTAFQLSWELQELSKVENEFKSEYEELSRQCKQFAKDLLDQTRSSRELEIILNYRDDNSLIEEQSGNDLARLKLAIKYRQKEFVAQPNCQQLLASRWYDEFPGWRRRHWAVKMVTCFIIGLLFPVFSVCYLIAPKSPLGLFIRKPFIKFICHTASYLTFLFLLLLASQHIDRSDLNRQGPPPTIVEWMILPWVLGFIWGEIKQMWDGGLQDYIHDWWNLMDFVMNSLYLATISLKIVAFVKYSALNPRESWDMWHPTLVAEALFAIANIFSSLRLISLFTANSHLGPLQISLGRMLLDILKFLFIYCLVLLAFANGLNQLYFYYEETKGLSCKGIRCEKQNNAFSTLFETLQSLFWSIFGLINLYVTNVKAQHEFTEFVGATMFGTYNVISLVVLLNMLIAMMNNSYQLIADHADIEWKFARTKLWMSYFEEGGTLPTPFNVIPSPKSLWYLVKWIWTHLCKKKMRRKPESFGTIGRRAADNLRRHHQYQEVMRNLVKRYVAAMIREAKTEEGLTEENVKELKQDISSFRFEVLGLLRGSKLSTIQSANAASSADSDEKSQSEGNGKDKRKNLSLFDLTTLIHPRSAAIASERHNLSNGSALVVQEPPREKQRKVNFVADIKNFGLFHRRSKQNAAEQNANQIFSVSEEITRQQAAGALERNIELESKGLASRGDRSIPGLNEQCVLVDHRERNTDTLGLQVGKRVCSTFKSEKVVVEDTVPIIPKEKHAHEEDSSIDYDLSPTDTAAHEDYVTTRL
# [16] = molecular target: T6, Corticotropin-releasing factor receptor 2/Corticotropin-releasing factor-binding protein (Homo sapiens, UniProt P24387+Q13324); experiment: activators of CRF receptor 2 with binding protein – uHTS hits, confirmation (AID 602473); assay type: functional; details: read-out: EC50_Mean
# T6 sequence (Q13324 whole entry): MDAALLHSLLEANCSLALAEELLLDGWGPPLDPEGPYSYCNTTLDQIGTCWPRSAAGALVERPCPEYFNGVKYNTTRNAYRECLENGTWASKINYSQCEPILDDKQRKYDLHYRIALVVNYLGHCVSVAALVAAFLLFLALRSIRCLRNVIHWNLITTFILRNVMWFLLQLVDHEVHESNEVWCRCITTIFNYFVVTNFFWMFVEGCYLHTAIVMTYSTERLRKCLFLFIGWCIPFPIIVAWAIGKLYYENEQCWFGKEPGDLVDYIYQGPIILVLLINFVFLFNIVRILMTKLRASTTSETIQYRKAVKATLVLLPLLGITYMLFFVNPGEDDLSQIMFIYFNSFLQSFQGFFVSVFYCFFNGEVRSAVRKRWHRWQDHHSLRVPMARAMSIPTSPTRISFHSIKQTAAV
# T6 sequence (P24387 whole entry): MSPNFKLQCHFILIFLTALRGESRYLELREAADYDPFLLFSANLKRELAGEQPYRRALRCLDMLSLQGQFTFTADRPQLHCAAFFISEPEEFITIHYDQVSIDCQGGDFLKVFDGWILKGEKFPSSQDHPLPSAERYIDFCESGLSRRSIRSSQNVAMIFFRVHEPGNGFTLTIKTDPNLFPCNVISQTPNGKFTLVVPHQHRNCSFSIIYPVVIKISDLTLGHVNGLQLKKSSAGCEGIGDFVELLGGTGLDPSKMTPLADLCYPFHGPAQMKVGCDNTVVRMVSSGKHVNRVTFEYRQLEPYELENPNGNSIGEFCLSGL
# [17] = molecular target: Protein phosphatase methylesterase 1 (Homo sapiens, UniProt Q9Y570); experiment: PME-1 inhibitor potency by in-gel ABPP, dose response, selectivity assay for PME-1 inhibitor project, cell lysate, mouse brain cytosol, FP-rhodamine, panel member PME-1 Assay Panel member description: Inhibition of endogenously expressed PME-1 (AID 2366)
# [18] = molecular target: Neurotensin receptor type 1 (Homo sapiens, UniProt P30989); assay type: functional;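 note: Image-based confirmatory dose-response assay measuring agonist activity at NTR1; NTR1-expressing U2OS osteosarcoma cells imaged for beta-arrestin GFP spot formation; agonist potency where compounds increase beta-arrestin recruitment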
# [19] = molecular target: Alkaline phosphatase, placental type (Homo sapiens, UniProt P05187); experiment: PLAP enzyme inhibitors, confirmation, biochemical, luminescence (AID 1512); assay type: functional
# [20] = molecular target: T2, Tyrosine-protein phosphatase non-receptor type 7; experiment: SAR analysis of chemical inhibitors of HePTP using a Fluorescent assay - Set 2. [Related pubchem assays (depositor defined):AID1059, AID1077, AID1661, AID2085, AID521]; assay type: functional
# Phosphomannomutase 2 = Phosphomannomutase 2 (Homo sapiens, UniProt O15305); experiment: Counter screen SAR assay for PMM2 inhibitors via a fluorescence intensity assay. [Related pubchem assays (depositor defined):AID1545, AID1574]
# [21] = molecular target: Potassium voltage-gated channel subfamily KQT member 2 (Rattus norvegicus, UniProt O88943); experiment: retigabine-insensitive KCNQ2 potentiators, concentration-response, dose response, cell-based, retigabine-insensitive compounds (AID 2654); assay type: functional
# 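Throughout, for AC50: cells exposed to compound for roughly 70 hours or longer before luminescence read.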
# T1 sequence (P09923 whole entry): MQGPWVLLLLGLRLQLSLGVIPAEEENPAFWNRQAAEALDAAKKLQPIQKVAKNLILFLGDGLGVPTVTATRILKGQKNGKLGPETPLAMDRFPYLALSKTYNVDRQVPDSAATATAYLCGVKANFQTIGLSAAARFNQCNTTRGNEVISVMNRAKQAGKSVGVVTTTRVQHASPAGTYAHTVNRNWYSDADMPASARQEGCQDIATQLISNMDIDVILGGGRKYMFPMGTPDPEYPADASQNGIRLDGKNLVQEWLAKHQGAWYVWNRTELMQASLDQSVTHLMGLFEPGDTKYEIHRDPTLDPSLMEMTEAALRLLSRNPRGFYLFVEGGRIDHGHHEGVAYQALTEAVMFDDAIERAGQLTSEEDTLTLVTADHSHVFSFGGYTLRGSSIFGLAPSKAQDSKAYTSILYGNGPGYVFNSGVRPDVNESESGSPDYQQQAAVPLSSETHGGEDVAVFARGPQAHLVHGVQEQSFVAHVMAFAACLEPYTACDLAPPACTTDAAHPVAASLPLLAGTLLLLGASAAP
# Sequence of Dual specificity protein phosphatase 3 (P51452 whole entry): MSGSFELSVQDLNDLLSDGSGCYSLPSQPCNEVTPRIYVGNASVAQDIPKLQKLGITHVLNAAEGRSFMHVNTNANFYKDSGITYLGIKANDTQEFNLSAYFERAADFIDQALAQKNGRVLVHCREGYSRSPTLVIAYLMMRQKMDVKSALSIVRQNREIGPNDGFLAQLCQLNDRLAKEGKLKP
# Sequence of Wee1-like protein kinase (P30291 whole entry): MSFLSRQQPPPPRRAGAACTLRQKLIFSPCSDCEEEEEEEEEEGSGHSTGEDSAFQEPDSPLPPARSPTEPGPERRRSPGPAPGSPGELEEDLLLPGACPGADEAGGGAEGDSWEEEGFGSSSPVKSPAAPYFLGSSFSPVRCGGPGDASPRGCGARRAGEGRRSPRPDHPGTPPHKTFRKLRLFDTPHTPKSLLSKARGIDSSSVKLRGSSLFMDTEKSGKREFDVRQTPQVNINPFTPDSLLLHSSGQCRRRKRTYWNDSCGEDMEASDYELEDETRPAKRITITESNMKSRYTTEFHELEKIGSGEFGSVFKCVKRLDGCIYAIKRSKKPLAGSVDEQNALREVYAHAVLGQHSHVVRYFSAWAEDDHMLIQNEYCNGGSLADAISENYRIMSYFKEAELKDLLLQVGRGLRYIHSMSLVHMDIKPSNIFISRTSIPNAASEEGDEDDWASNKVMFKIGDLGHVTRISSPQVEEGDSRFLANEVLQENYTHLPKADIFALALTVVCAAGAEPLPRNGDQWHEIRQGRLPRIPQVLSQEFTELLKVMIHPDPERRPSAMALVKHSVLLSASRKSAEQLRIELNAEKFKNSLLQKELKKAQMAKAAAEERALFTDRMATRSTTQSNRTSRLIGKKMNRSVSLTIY
# Sequence of Voltage-dependent T-type calcium channel subunit alpha-1H (O95180 whole entry): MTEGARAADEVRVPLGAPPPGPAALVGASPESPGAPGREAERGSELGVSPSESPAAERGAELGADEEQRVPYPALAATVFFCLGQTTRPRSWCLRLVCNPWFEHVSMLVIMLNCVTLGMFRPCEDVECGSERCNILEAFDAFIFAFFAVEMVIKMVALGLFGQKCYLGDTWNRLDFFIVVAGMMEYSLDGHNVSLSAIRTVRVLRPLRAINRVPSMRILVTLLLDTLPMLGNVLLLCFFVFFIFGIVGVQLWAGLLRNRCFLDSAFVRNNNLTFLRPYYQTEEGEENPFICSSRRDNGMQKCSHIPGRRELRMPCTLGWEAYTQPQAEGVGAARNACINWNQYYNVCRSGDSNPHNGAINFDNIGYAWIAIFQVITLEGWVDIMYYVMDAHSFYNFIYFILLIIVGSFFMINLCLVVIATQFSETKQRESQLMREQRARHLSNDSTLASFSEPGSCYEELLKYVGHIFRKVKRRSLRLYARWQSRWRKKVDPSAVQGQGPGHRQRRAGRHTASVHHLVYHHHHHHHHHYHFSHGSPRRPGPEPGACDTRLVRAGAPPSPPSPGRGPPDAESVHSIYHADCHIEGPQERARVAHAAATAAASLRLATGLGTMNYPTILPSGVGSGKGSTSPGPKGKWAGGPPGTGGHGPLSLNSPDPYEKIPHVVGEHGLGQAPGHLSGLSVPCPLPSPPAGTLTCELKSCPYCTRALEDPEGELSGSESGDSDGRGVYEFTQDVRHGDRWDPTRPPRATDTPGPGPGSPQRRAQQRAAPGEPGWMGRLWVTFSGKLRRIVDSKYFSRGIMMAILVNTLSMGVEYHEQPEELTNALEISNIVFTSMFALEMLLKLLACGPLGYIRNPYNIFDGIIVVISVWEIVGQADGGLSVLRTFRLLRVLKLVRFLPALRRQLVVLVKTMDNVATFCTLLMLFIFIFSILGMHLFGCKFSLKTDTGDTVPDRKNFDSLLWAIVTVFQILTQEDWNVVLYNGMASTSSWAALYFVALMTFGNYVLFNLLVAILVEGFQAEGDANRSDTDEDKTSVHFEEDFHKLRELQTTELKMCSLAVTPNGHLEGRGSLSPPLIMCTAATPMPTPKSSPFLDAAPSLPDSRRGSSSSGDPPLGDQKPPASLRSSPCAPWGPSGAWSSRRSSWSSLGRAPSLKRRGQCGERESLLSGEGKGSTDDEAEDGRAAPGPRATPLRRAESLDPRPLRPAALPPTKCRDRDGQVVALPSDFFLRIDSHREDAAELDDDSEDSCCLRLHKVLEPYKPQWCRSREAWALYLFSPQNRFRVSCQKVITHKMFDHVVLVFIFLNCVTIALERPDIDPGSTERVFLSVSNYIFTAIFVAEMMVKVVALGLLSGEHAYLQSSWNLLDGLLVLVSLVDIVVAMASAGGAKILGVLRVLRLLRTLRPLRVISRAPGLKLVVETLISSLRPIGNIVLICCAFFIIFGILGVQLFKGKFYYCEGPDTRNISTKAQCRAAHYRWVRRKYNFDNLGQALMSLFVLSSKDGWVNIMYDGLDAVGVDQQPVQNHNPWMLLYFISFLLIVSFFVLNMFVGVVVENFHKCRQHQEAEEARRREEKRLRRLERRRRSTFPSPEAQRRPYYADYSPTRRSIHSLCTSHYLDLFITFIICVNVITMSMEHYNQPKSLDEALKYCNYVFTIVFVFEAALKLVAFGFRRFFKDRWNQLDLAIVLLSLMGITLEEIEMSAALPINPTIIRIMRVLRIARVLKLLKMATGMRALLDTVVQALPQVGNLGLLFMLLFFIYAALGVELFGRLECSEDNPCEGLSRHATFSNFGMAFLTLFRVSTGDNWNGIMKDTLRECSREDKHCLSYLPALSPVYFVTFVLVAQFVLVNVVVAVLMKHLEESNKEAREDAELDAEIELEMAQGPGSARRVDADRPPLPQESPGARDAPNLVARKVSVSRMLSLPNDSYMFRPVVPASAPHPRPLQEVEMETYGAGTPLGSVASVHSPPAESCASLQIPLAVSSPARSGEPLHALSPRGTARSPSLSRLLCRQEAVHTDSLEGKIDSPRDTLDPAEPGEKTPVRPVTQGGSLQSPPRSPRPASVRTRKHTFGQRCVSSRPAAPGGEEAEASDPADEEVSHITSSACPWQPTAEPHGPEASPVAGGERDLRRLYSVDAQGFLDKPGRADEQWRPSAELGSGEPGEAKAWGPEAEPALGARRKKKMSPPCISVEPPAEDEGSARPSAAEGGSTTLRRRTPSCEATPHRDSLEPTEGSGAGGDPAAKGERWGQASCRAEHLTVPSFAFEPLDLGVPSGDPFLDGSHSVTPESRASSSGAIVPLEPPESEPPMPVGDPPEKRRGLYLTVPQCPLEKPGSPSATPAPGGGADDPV
# Sequence of Protein phosphatase methylesterase 1 (Q9Y570 whole entry): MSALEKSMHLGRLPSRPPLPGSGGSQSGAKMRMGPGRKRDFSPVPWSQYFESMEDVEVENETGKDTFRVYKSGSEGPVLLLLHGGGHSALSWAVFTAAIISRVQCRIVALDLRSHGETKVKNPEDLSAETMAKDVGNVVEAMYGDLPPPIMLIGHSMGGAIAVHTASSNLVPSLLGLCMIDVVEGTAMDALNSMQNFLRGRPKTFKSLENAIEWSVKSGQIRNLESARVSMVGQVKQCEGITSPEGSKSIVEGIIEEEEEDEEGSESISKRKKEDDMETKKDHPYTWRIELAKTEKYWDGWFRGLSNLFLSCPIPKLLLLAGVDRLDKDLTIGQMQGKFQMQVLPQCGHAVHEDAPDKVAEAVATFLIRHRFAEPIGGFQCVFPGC
# Sequence of Neurotensin receptor type 1 (P30989 whole entry): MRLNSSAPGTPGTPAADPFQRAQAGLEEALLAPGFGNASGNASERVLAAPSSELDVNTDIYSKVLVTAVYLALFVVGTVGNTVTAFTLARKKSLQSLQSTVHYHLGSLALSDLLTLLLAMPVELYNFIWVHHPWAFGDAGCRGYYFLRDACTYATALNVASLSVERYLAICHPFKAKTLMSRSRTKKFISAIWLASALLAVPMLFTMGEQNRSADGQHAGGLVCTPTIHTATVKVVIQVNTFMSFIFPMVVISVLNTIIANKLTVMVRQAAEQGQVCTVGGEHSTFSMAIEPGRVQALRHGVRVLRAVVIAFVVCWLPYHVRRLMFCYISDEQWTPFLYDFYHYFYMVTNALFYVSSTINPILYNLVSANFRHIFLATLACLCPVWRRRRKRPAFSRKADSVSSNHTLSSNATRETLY
# Sequence of Phosphomannomutase 2 (O15305 whole entry): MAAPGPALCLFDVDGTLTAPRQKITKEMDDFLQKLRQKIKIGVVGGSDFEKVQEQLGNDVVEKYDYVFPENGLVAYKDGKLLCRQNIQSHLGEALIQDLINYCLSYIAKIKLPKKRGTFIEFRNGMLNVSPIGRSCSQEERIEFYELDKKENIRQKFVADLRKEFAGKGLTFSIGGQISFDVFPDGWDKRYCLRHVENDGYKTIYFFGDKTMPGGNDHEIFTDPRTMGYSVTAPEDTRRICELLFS
# Sequence of X-box-binding protein 1 (P17861 whole entry): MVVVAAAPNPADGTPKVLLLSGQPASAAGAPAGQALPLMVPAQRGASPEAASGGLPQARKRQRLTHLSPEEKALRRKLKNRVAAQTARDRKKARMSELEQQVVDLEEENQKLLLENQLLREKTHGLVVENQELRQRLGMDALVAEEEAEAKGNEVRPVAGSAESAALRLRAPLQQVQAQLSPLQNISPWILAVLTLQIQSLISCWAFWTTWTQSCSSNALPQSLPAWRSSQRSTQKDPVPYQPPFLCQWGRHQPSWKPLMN
smiles,measurement,setting,value
O=C(Nc1ccc2c(c1)OCO2)c1ccccn1,EC50,[1],9.66 µM (active)
same,EC50,[2],7.17 µM (active)
Cc1cccc(NC(=O)CCCOc2cc(=O)n(C)c3ccccc23)n1,EC50,Wee1-like protein kinase,> 49.7 µM (inactive)
same,EC50,[3],> 49.7 µM (inactive)
CC(=O)Nc1ccc(NC(=O)C2CC(=O)N(C(C)C)C2)cc1 (centres undefined),IC50,[4],> 100 µM (inactive)
same,EC50,[5],> 100 µM (inactive)
NS(=O)(=O)c1cc(C(=O)Nc2cccc(Cl)c2)ccc1Cl,IC50,[6],> 100 µM (inactive)
same,IC50,[7],> 100 µM (inactive)
same,IC50,[8],> 100 µM (inactive)
O=C(COc1ccccc1F)Nc1nnc(-c2ccc(F)cc2)o1,EC50,[9],10 µM (active)
CCc1cc(-c2[nH]nc(C)c2Oc2ccc(C(C)C)cc2)c(O)cc1O,CC50,[10],15.9 µM (active)
same,EC50,[11],2.28 µM (active)
same,EC50,Streptococcus,4.99 µM (active)
same,AC50,[12],3.13 µM (active)
same,Absolute IC50 (XBP1),X-box-binding protein 1,< 10 µM
Cc1ccc(Cl)cc1N1CCN(C(=O)c2cccc3c(=O)c(C)c(-c4ccccc4)oc23)CC1,EC50,[11],5.59 µM (active)
same,EC50,Streptokinase A,16 µM (active)
same,EC50,[13],8.26 µM (active)
same,EC50,[14],9.86 µM (active)
same,EC50,Streptococcus,> 150 µM (not active)
same,EC50,[15],6.68 µM (active)
same,EC50,[16],> 53 µM (inactive)
N#C/C(=C\c1cccn1S(=O)(=O)c1ccccc1)C(=O)c1ccccc1,IC50,[17],> 20 µM (inactive)
O=C1NC(=O)N(Cc2ccc(F)cc2)C(=O)/C1=C/c1cccs1,EC50,[18],12.6 µM (active)
Cc1ccc(NC(=S)NNC(=O)c2ccccc2OC(F)F)cc1,IC50,[19],> 100 µM (inactive)
same,IC50,[20],> 100 µM (inactive)
same,IC50,[7],> 100 µM (inactive)
CN(C)c1cccc(/N=c2\ssnc2Cl)c1,IC50,Phosphomannomutase 2,> 100 µM (inactive)
O=C(Nc1ccc(Cl)cc1)Nc1cccnc1,EC50,[21],6.85 µM (active)
